Measured values published in PubChem BioAssay AID1996.
Converted amounts (≈) assume the structure as drawn.

Details: buffer; pH 7.4; 200.0 µM

solubility kinetic | SMILES
38.3 µg/mL (≈ 147 µM) | NC(=O)c1ccccc1NC(=O)Cc1cccs1
> 44.5 µg/mL | CC(Oc1cccc(Cl)c1)C(=O)N1CCCN(C)CC1 (stereo unspecified)
43.1 µg/mL (≈ 139 µM) | O=C(Cc1ccccc1)N1CCC2(CC1)NCCc1[nH]cnc12
28 µg/mL (≈ 116 µM) | Cn1c(Nc2ccc(F)cc2)nc2ccccc21
4 µg/mL (≈ 8.41 µM) | COC(=O)Nc1ccc(S(=O)(=O)N2CCC(C(=O)NCc3ccc4c(c3)OCO4)CC2)cc1
2.1 µg/mL (≈ 6.95 µM) | CC(NC(=O)Nc1cccc(F)c1)c1ccc2c(c1)OCO2 (stereo unspecified)
45.1 µg/mL (≈ 128 µM) | COc1ccc(N2CCN(CC(=O)NC(C)c3ccccc3)CC2)cc1 (stereo unspecified)
> 47.8 µg/mL | Cn1c(C2=C(O)CN(Cc3ccccc3)C2=N)nc2ccccc21
> 39.1 µg/mL | Cc1ccc(N2C(=O)C3CCCN3C2=S)cc1C (stereo unspecified)
31.7 µg/mL (≈ 143 µM) | O=C(O)CSCc1nc2ccccc2[nH]1
18.2 µg/mL (≈ 69.5 µM) | N#Cc1cc(Cl)c(NCC2CCCO2)cc1C#N (stereo unspecified)
3 µg/mL (≈ 11.2 µM) | CC(=O)c1csc(COc2ccc(Cl)cc2)n1
44.4 µg/mL (≈ 135 µM) | CCN(CC)CC(O)CN1c2ccccc2Sc2ccccc21 (stereo unspecified)
12.7 µg/mL (≈ 24.6 µM) | Cc1ccc(C2(C)NC(=O)N(CC(=O)N3CCN(S(=O)(=O)c4cccc([N+](=O)[O-])c4)CC3)C2=O)cc1 (stereo unspecified)
3.9 µg/mL (≈ 15.1 µM) | O=C(Nc1cccc(Cl)c1Cl)C1CCCC1
1.1 µg/mL (≈ 3.35 µM) | CN(C)c1cc(-c2ccc(Br)cc2)oc(=O)c1Cl
32.4 µg/mL (≈ 107 µM) | CCN(C(=O)c1ccc(Br)cc1)c1ccccc1
0.6 µg/mL (≈ 2.37 µM) | O=C1Nc2ccc3sc4ccccc4c3c2C1=O
> 51.2 µg/mL | S=C(NCc1ccco1)N1CCN(C/C=C/c2ccccc2)CC1
30.9 µg/mL (≈ 99.4 µM) | CC(OC(=O)CC1CCCC1)C(=O)Nc1ccc(Cl)cn1 (stereo unspecified)
9.8 µg/mL (≈ 18.8 µM) | CCCc1cc(=O)[nH]c(SCC(=O)Nc2cc(S(=O)(=O)N(CC)c3ccccc3)ccc2Cl)n1
> 44.3 µg/mL | COc1ccccc1CC1CC(=O)N(c2ccccc2)C1=O (stereo unspecified)

solubility kinetic | SMILES
0.4 µg/mL (≈ 1.14 µM) | COc1ccc(Cl)cc1C(=O)NC(=S)Nc1nc(C)cc(C)n1
4.4 µg/mL (≈ 15.4 µM) | Oc1ccc(Br)cc1CNc1nccs1
36 µg/mL (≈ 105 µM) | COc1cc2c(cc1OC)CN(C(=O)c1cccc([N+](=O)[O-])c1)CC2
18.3 µg/mL (≈ 50 µM) | O=S(=O)(c1ccc(Cl)cc1)N1CCN(CCc2ccncc2)CC1
> 49.5 µg/mL | O=C(Nc1cccc(F)c1)c1ccc(Cn2cc([N+](=O)[O-])cn2)o1
11 µg/mL (≈ 40.1 µM) | O=S1(=O)N=C(Nc2ccc(O)cc2)c2ccccc21
34.2 µg/mL (≈ 134 µM) | CC(NS(=O)(=O)/C=C/c1ccccc1)C(=O)O (stereo unspecified)
22.3 µg/mL (≈ 76.7 µM) | O=C(NC12CC3CC(CC(C3)C1)C2)c1cccnc1Cl
11.8 µg/mL (≈ 28.3 µM) | CC(NC(=O)COC(=O)c1cccc(S(=O)(=O)N2CCCC2)c1)c1ccccc1 (stereo unspecified)
8.5 µg/mL (≈ 24.6 µM) | COC(=O)Cc1ccc(Oc2ncc(C(F)(F)F)cc2Cl)cc1
9.1 µg/mL (≈ 32.9 µM) | Cc1ccc(S(=O)(=O)Nc2cccnc2)c(C)c1C
2.4 µg/mL (≈ 7.47 µM) | COC(=O)COc1ccc(-c2nccc(-c3ccccn3)n2)cc1
39.5 µg/mL (≈ 132 µM) | O=C(Oc1ccccc1)N1CCN(c2ccccc2F)CC1
16.4 µg/mL (≈ 58.5 µM) | CC(C)(C)N1CSC(=S)N(Cc2ccccc2)C1
6 µg/mL (≈ 19 µM) | CCOc1ccc(C(C)=O)cc1COc1cccnc1[N+](=O)[O-]
48.1 µg/mL (≈ 147 µM) | COc1ccc(S(N)(=O)=O)cc1C(=O)OCC1CCCCC1
43.9 µg/mL (≈ 137 µM) | COc1cc(CC(=O)NCC2CCCCC2)cc(OC)c1OC
35.2 µg/mL (≈ 139 µM) | Cc1ccc(N=CNc2ccc(C)cc2C)c(C)c1
> 49.4 µg/mL | CCN(C(=O)COc1ccc2ccc(=O)oc2c1)C1CCCCC1
22 µg/mL (≈ 69.1 µM) | CCC(C)[C@H](NC(=O)NC1CCCc2ccccc21)C(=O)OC (stereo partly specified)
0.7 µg/mL (≈ 2.2 µM) | CCOC(=O)c1sc(=NC(=O)c2cccc(C)c2)n(C)c1C
0.6 µg/mL (≈ 2.17 µM) | Cc1c(C=C2C(=O)c3ccccc3C2=O)cc(C#N)n1C

solubility kinetic | SMILES
11.5 µg/mL (≈ 42.1 µM) | CCOC(=O)c1cc(C)nc(N2CCCCC2)c1C#N
> 46.2 µg/mL | Cc1[nH]nc(SCC(=O)Nc2cccc(O)c2)c1[N+](=O)[O-]
49.6 µg/mL (≈ 147 µM) | CCS(=O)(=O)N1CCC(N2CCN(c3ccccc3)CC2)CC1
34.1 µg/mL (≈ 144 µM) | CCCC(C)NC(=O)c1ccccc1SC (stereo unspecified)
> 48.8 µg/mL | CCOc1ccc(CN2C(=O)c3ccccc3C2=O)cc1C(=O)O
> 37.2 µg/mL | CC(C)c1ccc(C(=O)NN2CCOCC2)cc1
> 50.9 µg/mL | COc1ccccc1C1C(C(C)=O)=C(O)C(=O)N1c1ccc(O)cc1 (stereo unspecified)
46 µg/mL (≈ 133 µM) | Cc1ccc(CS(=O)(=O)c2nc3c(c(N(C)C)n2)CCCC3)cc1
< 0.3 µg/mL | COc1ccc(NC(=O)c2cc(-c3ccc(C)cc3)on2)cc1
> 54.2 µg/mL | Cc1cc(C(=O)CSc2nc(N)cc(N)n2)c(C)n1CC1CCCO1 (stereo unspecified)
> 43.3 µg/mL | COc1ccc(/C=C/C(=O)NCCCN2CCCC2)cc1
7.3 µg/mL (≈ 27.5 µM) | c1ccc(C2Nc3ccccc3C3OCCCC23)cc1 (stereo unspecified)
> 61.6 µg/mL | O=C(O)CCC(=O)Nc1ccc(Br)cc1C(=O)c1ccccc1Cl
< 0.3 µg/mL | FC(F)(F)c1ccc(-c2csc(-c3ccno3)n2)cc1
> 58.3 µg/mL | Cc1ccccc1SCC(=O)NCC(c1ccc(F)cc1)N1CCOCC1 (stereo unspecified)
2.6 µg/mL (≈ 6.59 µM) | O=C(NCCN1C(=O)S/C(=C\c2ccc(Cl)cc2)C1=O)C1=COCCO1
3.1 µg/mL (≈ 9.03 µM) | CCOC(=O)c1cc2c(ccn2C)n1CC(=O)Nc1ccc(F)cc1
14.7 µg/mL (≈ 62 µM) | O=C(Nc1ccccc1)c1cn2ccccc2n1
9 µg/mL (≈ 34 µM) | O=C(Nc1cccc(F)c1)NC1CCCCCCC1
27.8 µg/mL (≈ 61.4 µM) | Cc1cc(C)c(C)c(S(=O)(=O)N[C@@H](C)C(=O)OCC(=O)NC2CCCC(C)C2C)c1C (stereo partly specified)
> 35.9 µg/mL | CC(C)N=C(Nc1cccnc1)c1ccccc1
0.6 µg/mL (≈ 2.85 µM) | Nc1cc(Cl)ccc1N1CCCCC1

solubility kinetic | SMILES
> 37.7 µg/mL | CCC(=O)OCC(=O)Nc1ccc2c(c1)OCO2
30.3 µg/mL (≈ 138 µM) | COc1ccc(NC(=O)C2CCCC2)cc1
2.1 µg/mL (≈ 6.34 µM) | O=C(Cc1ccc(Cl)c(Cl)c1)Nc1cccc2ncccc12
0.9 µg/mL (≈ 2.93 µM) | Cc1ccc(-c2nc(C#N)c(NCCCn3ccnc3)o2)cc1
> 44.1 µg/mL | Cc1cc(Nc2cccc(Cl)c2Cl)n2ncnc2n1
> 46.3 µg/mL | COc1ccc(Nc2cc(C)nc3c(C)cccc23)cc1OC
28.5 µg/mL (≈ 101 µM) | CC(C)c1ccc(Nc2nc(Cl)nc(Cl)n2)cc1
> 41.6 µg/mL | CC(=O)Nc1c2c(nn1-c1ccc(F)cc1)CSC2
0.7 µg/mL (≈ 2.06 µM) | COC(=O)CSc1nc2ccccc2c(=O)n1Cc1ccccc1
21.3 µg/mL (≈ 65.2 µM) | CC(=O)Nc1ccc(NC(=O)CC23CC4CC(CC(C4)C2)C3)cc1
52.5 µg/mL (≈ 118 µM) | Cc1ccc(S(=O)(=O)N2CCN(C3CC(=O)N(c4ccc(F)cc4)C3=O)CC2)cc1C (stereo unspecified)
> 41.6 µg/mL | COc1ccc(C(=O)COC(=O)C2CCC(=O)N2)cc1 (stereo unspecified)
> 54.5 µg/mL | CCOC(=O)C1CCN(C(=O)COC(=O)c2ccccc2OCC)CC1
> 48.4 µg/mL | CCn1c(Cc2cccs2)nnc1SCC(=O)NC1CC1
> 44.9 µg/mL | COC(=O)C1CCN(C(=O)c2ccc3nccnc3c2)CC1
0.6 µg/mL (≈ 1.66 µM) | Cc1cc(C)cc(NC(=O)Nc2cc(S(=O)(=O)N(C)C)ccc2C)c1
> 54.4 µg/mL | O=C(COC(=O)COc1ccc(Cl)cc1Br)NC1CC1
< 0.3 µg/mL | COc1ccc(NC(=O)c2sc3nc(C)cc(C)c3c2N)c(OC)c1
> 44.6 µg/mL | O=C(O)CCC(=O)Nc1cccc(C(=O)c2ccccc2)c1

SMILES | solubility kinetic
COc1ccc(CC(C)Nc2cccc(F)c2)cc1 (stereo unspecified) | 1 µg/mL (≈ 3.86 µM)
